pIC50: −log10 of the molar value.
Experiments:
PRMT5 = target: T1, PRMT5 (Homo sapiens, UniProt O14744); test: AlphaLISA PRMT5 methylation assay (biotin-histone H4R3, SAM); type: biochemical; conditions: PRMT5 methylation of histone H4R3, in vitro; read-out: IC50 using AlphaLISA
T1 construct: Flag; made in house; host or cells: 293 cells
Method: FIG. 1 is a schematic illustration of the AlphaLISA technique for the identification of small-molecule PRMT5 inhibitors. Biotinylated substrate (histone H4) is incubated with PRMT5 and methyl donor, S-adenosyl-1-methionine (SAM). PRMT5 symmetrically dimethylates the third arginine (R3) on biotin-H4 to form biotin-H4R3me2. This product is recognized by Acceptor beads specific for this methylation site. Donor beads have a streptavidin tag and bind to biotin-H4. Interaction between the Acceptor and Donor beads emits a chemiluminescent signal, which is detected by an ENVISION™ Reader (PerkinElmer, Waltham, MA). The methylation activity of PRMT5 is proportional to the intensity of this signal.
In order to identify PRMT5 inhibitors, the AlphaLISA technique (PerkinElmer, Waltham, MA) was adapted to an assay that could precisely quantify PRMT5 dimethylation of its substrate in a 384-well HTS platform (FIG. 1). The AlphaLISA high-throughput screen comprises incubating a biotinylated substrate (e.g., histone H4), PRMT5, and a methyl donor (e.g., S-adenosyl-1-methionine (SAM)); PRMT5 dimethylates the biotinylated substrate and the dimethylated biotinylated substrate is recognized by Acceptor beads specific for the methylation site. Donor beads comprising a tag (e.g., streptavadin) bind to the biotinylated substrate, and interaction between the Acceptor beads and Donor beads emits a signal (e.g., chemiluminescent signal), which can be detected. The methylation activity of PRMT5 is proportional to the intensity of the signal.
In one embodiment of the method used to identify the compounds disclosed herein, PRMT5 enzyme was purified with anti-Flag-M2 beads (Sigma-Aldrich, St. Louis, MO) from 293 cells overexpressing the Flag-PRMT5 protein (Wei et al., Proc Natl Acad Sci USA, 2013; 110: 13516-13521). The enzyme prep was diluted at 1:10 in assay buffer (30 mM Tris, pH 8.0, 1 mM DTT, 0.01% BSA, 0.01% Tween-20) before use. […] The plates were read using an ENVISION™ Reader (PerkinElmer, Waltham, MA).

[1] = test system: other protein arginine methyltransferase family members; test: HotSpot radioisotope-based methyltransferase platform (Reaction Biology Corp); type: biochemical; conditions: did not inhibit or at least this fold higher IC50
[2] = test system: PDAC cells (PANC1, MiaPaCa2 and AsPC1); test: MTT cell viability assay in PDAC cell lines; type: cell-based
Method: (§1) The PRMT5 inhibitory activity of the compounds from the screen was confirmed using both AlphaLISA and an MTT [(3-(4,5-dimethylthiazolyl-2)-2,5-diphenyltetrazolium bromide)] assay (PerkinElmer, Waltham, MA). For the MTT assay, cells were seeded at 90% confluence in 96-well plates and titrated with different dosages of compound (IIa) for 4 days. Media was then removed and 100 μl of MTT (Sigma-Aldrich, St. Louis, MO) was added per well. Cells were incubated for 2 hours at 37° C. before adding 100 μl of DMSO to each well and quantified with the SYNERGY™ H1 Multi-Mode Reader (BioTek Instruments Inc., Winooski, VT). The expression of PRMT5 was examined in pancreatic ductal adenocarcinoma cells at multiple stages of disease progression and in multiple colorectal cancer cell lines. Pancreatic control (HPNE) and cancer cell lines (PANC1, MiaPaCa2 and AsPC1) were grown in Dulbecco's Modified Eagle Medium (DMEM) (GE Healthcare, Little Chalfont, UK), supplemented with 1% of penicillin/streptomycin, 10% fetal bovine serum (FBS). Colon control (FHC) and cancer (HT29, HCT116, and DLD1) cell lines were maintained in RPMI 1640 Medium (Roswell Park Memorial Institute Medium) (GE Healthcare, Little Chalfont, UK), containing 1% penicillin/streptomycin and 10% FBS, while FHC cells were cultured under the same condition with further addition of 25 mM HEPES (4-(2-hydroxyethyl)-1-piperazineethanesulfonic acid), 10 ng/ml cholera toxin, 0.005 mg/ml insulin, 0.005 mg/ml transferring, and 100 ng/ml hydrocortisone. All cell lines were cultured at 37° C. under 5% CO2. The PDAC and CRC cell lines described above were treated with increasing concentrations of compound (IIa) or the commercially available PRMT5 inhibitor EPZ015666 [drawing 12] and quantified for cell viability using the MTT assay described above. […] A soft agar experiment was also performed to determine the effect of compound (IIa) on colony growth.

[3] = test system: CRC cells (HT29, HCT116 and DLD1); test: MTT cell viability assay in CRC cell lines; type: cell-based
Method: as §1

NF-κB = NF-κB luciferase assay in HT29 cells; type: cell-based; conditions: increasing concentrations
From the text: Previously, it was discovered that PRMT5 activates NF-κB through methylation of its p65 subunit in HEK293 cells (Wei et al., Proc Natl Acad Sci USA, 2013; 110: 13516-13521; Wei et al., Cell Cycle, 2013; 13: 32-41). As shown in FIGS. 11A and 11B, overexpression of PRMT5 enhances NF-κB activity, while PRMT5 knockdown causes the opposite effect in both PANC1 (FIG. 11A) and HT-29 (FIG. 11B) cells. To determine if compound (IIa) decreases NF-κB activity, cells transfected with a NF-κB luciferase construct were treated with increasing concentrations of compound (IIa) or the control compound EPZ015666.

[4] = test system: methamphetamine-treated rats; test: Striatal neurotransmitter levels (HPLC) in methamphetamine-treated rats; type: in vivo; conditions: methamphetamine 7.5 mg/kg ×4, then 4 injections of 1 mg/kg at 12 hour intervals, vs vehicle
Method: Rats were given methamphetamine treatment 7.5 mg/kg, 4 injections spaced out at 2 hours each. Then, 4 injections of 1 mg/kg of compound (IIa) or vehicle control were given at 12 hours, 24 hours, 36 hours, and 48 hours after the last methamphetamine injection. Rats were sacrificed 24 hours after the last injection and neurotransmitter levels were quantified in the striatum using high performance liquid chromatography (HPLC).

T1 sequence (O14744 whole entry): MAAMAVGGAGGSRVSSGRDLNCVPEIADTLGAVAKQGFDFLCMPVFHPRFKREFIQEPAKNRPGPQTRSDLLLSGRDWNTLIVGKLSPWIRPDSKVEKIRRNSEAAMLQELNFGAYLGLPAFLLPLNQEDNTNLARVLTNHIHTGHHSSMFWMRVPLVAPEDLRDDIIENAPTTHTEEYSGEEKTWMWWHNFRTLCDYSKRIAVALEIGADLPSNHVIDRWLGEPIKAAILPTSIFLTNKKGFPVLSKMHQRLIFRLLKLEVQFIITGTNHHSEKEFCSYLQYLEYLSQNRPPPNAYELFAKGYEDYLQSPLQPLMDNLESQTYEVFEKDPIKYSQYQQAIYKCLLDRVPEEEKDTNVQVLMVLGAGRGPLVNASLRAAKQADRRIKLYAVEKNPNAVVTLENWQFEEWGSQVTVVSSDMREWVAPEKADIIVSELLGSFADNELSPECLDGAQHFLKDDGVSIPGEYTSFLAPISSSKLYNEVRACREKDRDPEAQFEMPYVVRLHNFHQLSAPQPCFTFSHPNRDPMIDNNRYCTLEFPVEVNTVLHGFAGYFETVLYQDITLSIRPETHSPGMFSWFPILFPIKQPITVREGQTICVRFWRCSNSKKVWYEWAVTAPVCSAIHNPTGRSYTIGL
T1 sequence (Q9BQA1 whole entry partner): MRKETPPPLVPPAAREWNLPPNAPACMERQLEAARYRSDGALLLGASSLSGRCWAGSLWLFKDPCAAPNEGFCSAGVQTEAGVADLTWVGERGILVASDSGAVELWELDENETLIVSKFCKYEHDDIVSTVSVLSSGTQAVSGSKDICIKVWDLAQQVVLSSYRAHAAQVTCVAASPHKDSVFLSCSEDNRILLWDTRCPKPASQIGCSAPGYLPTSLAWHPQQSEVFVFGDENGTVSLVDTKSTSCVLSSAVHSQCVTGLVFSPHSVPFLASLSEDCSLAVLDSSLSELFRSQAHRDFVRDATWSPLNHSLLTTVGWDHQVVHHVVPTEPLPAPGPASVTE

Cc1ccc(Nc2nc(NCCN(C)C)nc3c2cnn3-c2ccccc2)cc1C [compound (IIa)]
pIC50 (PRMT5): ~5.12 | fold higher IC50 against other protein arginine methyltransferase family members [1]: ≥ 10 fold | cell viability in PDAC cells (PANC1, MiaPaCa2, AsPC1), MTT ([2]; increasing concentrations): decreased significantly | pIC50 ([2]; range over PANC1, MiaPaCa2 and AsPC1): 5.40 to 5.70 | cell viability in CRC cells (HT29, HCT116, DLD1), MTT ([3]; increasing concentrations): decreased significantly | pIC50 ([3]; range over HT29, HCT116 and DLD1): 4.96 to 5.00 | NF-κB activation (luciferase), HT29 (NF-κB): corresponding decrease in NF-κB activation | dopamine levels in the striatum [4]: increase | serotonin levels in the striatum [4]: increase

Reference: patent US12516052B2, “Methyltransferase 5 (PRMT5) inhibitors and methods of treatment” (THE TRUSTEES OF INDIANA UNIVERSITY, priority 2016, dated 2026)
